Here are results for four molecules from paper PMC12020230 (Fluids and Barriers of the CNS, 2025).

One data set concerns choroid plexus. Description: ^86Rb^+ efflux from excised choroid plexus upon PKA inhibition. The data set is classed as cell-based, rat. The following applies: H89 50 µM vs control, n = 5 of each, P < 0.01.
A further data set has as its system patients. The following applies: midazolam anaesthesia, ref [48]; cited from earlier work.
The test system of data set [1] is idiopathic intracranial hypertension (IIH) patients. The following applies: small clinical trial, ref [27]; cited from earlier work.
The conditions of data set [2]: ref [58]; cited from earlier work.

Turning to `O=S(=O)(NCCNC/C=C/c1ccc(Br)cc1)c1cccc2cnccc12` [H89], the “reduction of K^+ efflux across the luminal membrane” value in the data set with choroid plexus turned out to be 25%.
For `Cc1ncc2n1-c1ccc(Cl)cc1C(c1ccccc1F)=NC2` [midazolam], the “effect on ICP and perfusion pressure” value in the data set with patients was “reported to modulate ICP and perfusion pressure in patients”.
As for “Exenatide: GLP-1R agonist Exenatide, which has the same amino acid sequence as Ex4”, in data set [1], the ICP reductions is 1–3 mmHg.
Turning to “semaglutide: another GLP-1 receptor agonist, semaglutide”, the “risk of NAION” value in data set [2] is on record as “associated with increased risk of non-arteritic anterior ischemic optic neuropathy (NAION)”.
